Reference: ChEMBL document CHEMBL1201862, “PubChem BioAssay data set” (2004)
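All cell lines were grown in 96-well plates and treated with compound for 48 hours. Here, GI50 denotes the concentration required for 50% inhibition of growth.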 Calls of active or inactive are those of the source. Rule as the data show it: active = GI50 up to about 1.1 µM and inactive = higher.

Tests used:
Test in all cases: inhibition of tumour cell growth, NCI panel, 48 h
OVCAR-8 = test system: OVCAR-8
HL-60 = test system: HL-60
IGROV-1 = test system: IGROV-1
HCT-15 = test system: HCT-15
KM12 = test system: KM12
SF-268 = test system: SF-268
Malme-3M = test system: Malme-3M
SK-MEL-2 = test system: SK-MEL-2
COLO 205 = test system: COLO 205
SNB-75 = test system: SNB-75
NCI-H522 = test system: NCI-H522
HCC 2998 = test system: HCC 2998
SNB-19 = test system: SNB-19
CAKI-1 = test system: CAKI-1

Compound	GI50 (OVCAR-8)	GI50 (HL-60)	GI50 (IGROV-1)	GI50 (HCT-15) [µM]	GI50 (KM12)	GI50 (SF-268)	GI50 (Malme-3M)	GI50 (SK-MEL-2)	GI50 (COLO 205)	GI50 (SNB-75)	GI50 (NCI-H522)	GI50 (HCC 2998)	GI50 (SNB-19)	GI50 (CAKI-1)
O=c1c2cc(Br)cc(Br)c2nc(CCCl)n1-c1ccc(O)c([N+](=O)[O-])c1	22.9 µM (inactive)	23.3 µM (inactive)	22.6 µM (inactive)	19	18.5 µM (inactive)	19.3 µM (inactive)	19.1 µM (inactive)	18.9 µM (inactive)	21 µM (inactive)	19.8 µM (inactive)	9.66 µM (inactive)	18.5 µM (inactive)	20.1 µM (inactive)	
CC1CC#CCOC(=O)CCCC1=O (centres undefined)	> 100 µM (inactive)	> 100 µM (inactive)	> 100 µM (inactive)		> 100 µM (inactive)	> 100 µM (inactive)			> 100 µM (inactive)	> 100 µM (inactive)	> 100 µM (inactive)	> 100 µM (inactive)	> 100 µM (inactive)	
CCCCCCCCCCCc1nnc(N)o1	> 100 µM (inactive)	37.2 µM (inactive)	> 100 µM (inactive)	> 100	> 100 µM (inactive)	99.1 µM (inactive)	> 100 µM (inactive)	> 100 µM (inactive)	> 100 µM (inactive)	> 100 µM (inactive)	67 µM (inactive)	> 100 µM (inactive)	18.9 µM (inactive)	
O=C(O)c1ccc2c(c1)C(=O)N(c1ccc(S(=O)(=O)c3ccc(N4C(=O)c5ccc(C(=O)O)cc5C4=O)cc3)cc1)C2=O	> 100 µM (inactive)	> 100 µM (inactive)		> 100	> 100 µM (inactive)	> 100 µM (inactive)	> 100 µM (inactive)	> 100 µM (inactive)	> 100 µM (inactive)	> 100 µM (inactive)	> 100 µM (inactive)		> 100 µM (inactive)	> 100 µM (inactive)
COP12(OC)NC(=O)OC1(C(F)(F)F)c1ccccc1O2 (centres undefined)	> 100 µM (inactive)	> 100 µM (inactive)	> 100 µM (inactive)	> 100	> 100 µM (inactive)	> 100 µM (inactive)	> 100 µM (inactive)	> 100 µM (inactive)		44.9 µM (inactive)	> 100 µM (inactive)		> 100 µM (inactive)	
CC1(C)CCCC2(C)[C@@H]1CC[C@@]13CC(=O)[C@@](C)(CC[C@@H]21)C3 (some centres undefined)	85.7 µM (inactive)	52.4 µM (inactive)	> 100 µM (inactive)	97.5	80.5 µM (inactive)	95.7 µM (inactive)	> 100 µM (inactive)		> 100 µM (inactive)	> 100 µM (inactive)	20.9 µM (inactive)	> 100 µM (inactive)	> 100 µM (inactive)	> 100 µM (inactive)
CC(=O)OCC1OC(n2cccnc2=O)C(OC(C)=O)C1OC(C)=O (centres undefined)	> 100 µM (inactive)	> 100 µM (inactive)		> 100	> 100 µM (inactive)	> 100 µM (inactive)	> 100 µM (inactive)	> 100 µM (inactive)	> 100 µM (inactive)	> 100 µM (inactive)	> 100 µM (inactive)		> 100 µM (inactive)	> 100 µM (inactive)
OC12c3ccccc3C1(N1CCOCC1)CCCCC21OCCCO1 (centres undefined)	> 100 µM (inactive)	> 100 µM (inactive)	> 100 µM (inactive)	> 100	> 100 µM (inactive)	> 100 µM (inactive)	> 100 µM (inactive)	> 100 µM (inactive)	> 100 µM (inactive)	> 100 µM (inactive)	> 100 µM (inactive)		> 100 µM (inactive)	> 100 µM (inactive)
COc1cc2ccnc(-c3c4ccccc4c(N)c4c(OC)c(OC)ccc34)c2cc1OC	3.6 µM (inactive)	1.39 µM (inactive)	3.24 µM (inactive)		2.38 µM (inactive)	3.01 µM (inactive)	3.32 µM (inactive)	4.86 µM (inactive)	1.58 µM (inactive)		3.16 µM (inactive)	2.62 µM (inactive)	2.85 µM (inactive)	2.65 µM (inactive)
C/C(=N/NS(=O)(=O)c1ccc(C)cc1)c1cccc[n+]1[O-]	> 100 µM (inactive)	> 100 µM (inactive)	> 100 µM (inactive)	> 100	> 100 µM (inactive)	> 100 µM (inactive)				> 100 µM (inactive)	> 100 µM (inactive)	> 100 µM (inactive)	> 100 µM (inactive)	> 100 µM (inactive)
O=P1(c2ccccc2)CCCCC1	> 100 µM (inactive)	> 100 µM (inactive)	> 100 µM (inactive)	> 100	> 100 µM (inactive)		> 100 µM (inactive)	> 100 µM (inactive)	> 100 µM (inactive)	> 100 µM (inactive)	> 10 µM (inactive)	> 100 µM (inactive)	> 100 µM (inactive)	
C/C(CC(=O)CCCC(=O)Nc1ccc(Cl)cc1Cl)=N/NC(=O)CC#N	> 100 µM (inactive)	> 100 µM (inactive)	> 100 µM (inactive)	> 100	> 100 µM (inactive)	> 100 µM (inactive)	> 100 µM (inactive)	> 100 µM (inactive)	> 100 µM (inactive)	> 100 µM (inactive)		> 100 µM (inactive)	> 100 µM (inactive)	> 100 µM (inactive)
COc1cccc(C(=O)C2C(=O)N(C)CCc3ccccc32)c1OC (centres undefined)	> 100 µM (inactive)	> 100 µM (inactive)	> 100 µM (inactive)	> 100	> 100 µM (inactive)	> 10 µM (inactive)	> 100 µM (inactive)	> 100 µM (inactive)	> 100 µM (inactive)	> 100 µM (inactive)	> 100 µM (inactive)		> 100 µM (inactive)	> 100 µM (inactive)
Cc1ccc2nc3c(Cl)cc(=O)cc-3sc2c1	21.2 µM (inactive)	5.77 µM (inactive)	19.4 µM (inactive)	17.5	> 10 µM (inactive)	23.6 µM (inactive)	30 µM (inactive)	> 10 µM (inactive)	18.7 µM (inactive)	21.5 µM (inactive)	16.7 µM (inactive)		> 10 µM (inactive)	27.4 µM (inactive)
COc1cc(C(=O)C/C(CCC(=O)Nc2ccccc2[N+](=O)[O-])=N\NC(=O)C(N)=O)ccc1O	> 100 µM (inactive)	> 100 µM (inactive)	> 100 µM (inactive)	> 100	> 100 µM (inactive)	> 100 µM (inactive)		> 100 µM (inactive)	> 100 µM (inactive)				> 100 µM (inactive)	> 100 µM (inactive)
O=C1/C(=C/c2ccc3c(c2)OCCO3)CCC/C1=C\c1ccc2c(c1)OCCO2	15.9 µM (inactive)	12.3 µM (inactive)	32.8 µM (inactive)	24.5	6.21 µM (inactive)	26.2 µM (inactive)	29 µM (inactive)		15.6 µM (inactive)	24.9 µM (inactive)	35.4 µM (inactive)	18.1 µM (inactive)	34.8 µM (inactive)	39.3 µM (inactive)
